{
  "source": "the supplement of paper PMC10307832",
  "test_in_all_cases": "relative viability (nuclei count vs DMSO), 5 days (fraction); higher = more cells survive",
  "key": {"Neratinib": {"compound": "CCOc1cc2ncc(C#N)c(Nc3ccc(OCc4ccccn4)c(Cl)c3)c2cc1NC(=O)/C=C/CN(C)C [Neratinib]", "outline": "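After an overnight hold at 37 °C, lung cancer cell lines in 1536-well plates were pinned with five library-drug doses (not always all listed), each √10 from the next, on vehicle-anchored plates. The cells stayed 5 days without fresh medium, then a one-step fix, permeabilisation and Hoechst stain preceded 4× imaging and MetaXpress nuclear counts. A plate passed only with control CV under 25% and at least one doubling. Viability is the median, over plates, of treated-well nuclei relative to vehicle-well nuclei.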"}, "Neratinib + Bortezomib": {"compound": "CCOc1cc2ncc(C#N)c(Nc3ccc(OCc4ccccn4)c(Cl)c3)c2cc1NC(=O)/C=C/CN(C)C [Neratinib] + CC(C)C[C@H](NC(=O)[C@H](Cc1ccccc1)NC(=O)c1cnccn1)B(O)O [Bortezomib] (partner 0.002 µM)", "outline": "(§1)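 Lung cancer cell lines were seeded in 1536-well plates and dosed by pin tool the next day, with either a single drug or a fixed anchor-drug dose combined with five library-drug doses (not always all listed) spaced in √10 steps. Five days later, one step fixed the cells and stained their nuclei (final 0.05% Triton X-100, 1% formaldehyde, 1 ug/ml Hoechst), and nuclei were counted on 4× images. Relative viability is the nuclei count in treated wells divided by the count in vehicle wells, and each value is the median of duplicate plates.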"}, "Neratinib + Navitoclax": {"compound": "CCOc1cc2ncc(C#N)c(Nc3ccc(OCc4ccccn4)c(Cl)c3)c2cc1NC(=O)/C=C/CN(C)C [Neratinib] + CC1(C)CCC(c2ccc(Cl)cc2)=C(CN2CCN(c3ccc(C(=O)NS(=O)(=O)c4ccc(N[C@H](CCN5CCOCC5)CSc5ccccc5)c(S(=O)(=O)C(F)(F)F)c4)cc3)CC2)C1 [Navitoclax] (partner 0.5 µM)", "outline": "as §1"}, "Neratinib + Foretinib": {"compound": "CCOc1cc2ncc(C#N)c(Nc3ccc(OCc4ccccn4)c(Cl)c3)c2cc1NC(=O)/C=C/CN(C)C [Neratinib] + COc1cc2c(Oc3ccc(NC(=O)C4(C(=O)Nc5ccc(F)cc5)CC4)cc3F)ccnc2cc1OCCCN1CCOCC1 [Foretinib] (partner 0.25 µM)", "outline": "as §1"}, "Neratinib + Lapatinib": {"compound": "CCOc1cc2ncc(C#N)c(Nc3ccc(OCc4ccccn4)c(Cl)c3)c2cc1NC(=O)/C=C/CN(C)C [Neratinib] + CS(=O)(=O)CCNCc1ccc(-c2ccc3ncnc(Nc4ccc(OCc5cccc(F)c5)c(Cl)c4)c3c2)o1 [Lapatinib] (partner 2 µM)", "outline": "as §1"}, "Neratinib + Pictilisib": {"compound": "CCOc1cc2ncc(C#N)c(Nc3ccc(OCc4ccccn4)c(Cl)c3)c2cc1NC(=O)/C=C/CN(C)C [Neratinib] + CS(=O)(=O)N1CCN(Cc2cc3nc(-c4cccc5[nH]ncc45)nc(N4CCOCC4)c3s2)CC1 [Pictilisib] (partner 1 µM)", "outline": "as §1"}, "Neratinib + Crizotinib": {"compound": "CCOc1cc2ncc(C#N)c(Nc3ccc(OCc4ccccn4)c(Cl)c3)c2cc1NC(=O)/C=C/CN(C)C [Neratinib] + C[C@@H](Oc1cc(-c2cnn(C3CCNCC3)c2)cnc1N)c1c(Cl)ccc(F)c1Cl [Crizotinib] (partner 1 µM)", "outline": "as §1"}, "Neratinib + Linsitinib": {"compound": "CCOc1cc2ncc(C#N)c(Nc3ccc(OCc4ccccn4)c(Cl)c3)c2cc1NC(=O)/C=C/CN(C)C [Neratinib] + C[C@]1(O)C[C@@H](c2nc(-c3ccc4ccc(-c5ccccc5)nc4c3)c3c(N)nccn32)C1 [Linsitinib] (partner 1 µM)", "outline": "as §1"}, "Neratinib + Alpelisib": {"compound": "CCOc1cc2ncc(C#N)c(Nc3ccc(OCc4ccccn4)c(Cl)c3)c2cc1NC(=O)/C=C/CN(C)C [Neratinib] + Cc1nc(NC(=O)N2CCC[C@H]2C(N)=O)sc1-c1ccnc(C(C)(C)C(F)(F)F)c1 [Alpelisib] (partner 2 µM)", "outline": "as §1"}, "Neratinib + Vorinostat": {"compound": "CCOc1cc2ncc(C#N)c(Nc3ccc(OCc4ccccn4)c(Cl)c3)c2cc1NC(=O)/C=C/CN(C)C [Neratinib] + O=C(CCCCCCC(=O)Nc1ccccc1)NO [Vorinostat] (partner 1 µM)", "outline": "as §1"}, "Neratinib + Olaparib": {"compound": "CCOc1cc2ncc(C#N)c(Nc3ccc(OCc4ccccn4)c(Cl)c3)c2cc1NC(=O)/C=C/CN(C)C [Neratinib] + O=C(c1cc(Cc2n[nH]c(=O)c3ccccc23)ccc1F)N1CCN(C(=O)C2CC2)CC1 [Olaparib] (partner 8 µM)", "outline": "as §1"}},
  "data": [
    {"cell line": "IA-LM", "values": [
      {"measurement": "relative viability", "setting": "Neratinib; 0.01 µM", "value": 1.03},
      {"measurement": "relative viability", "setting": "Neratinib; 0.03162 µM", "value": 1.04},
      {"measurement": "relative viability", "setting": "Neratinib; 0.1 µM", "value": 0.943},
      {"measurement": "relative viability", "setting": "Neratinib; 0.3162 µM", "value": 0.881},
      {"measurement": "relative viability", "setting": "Neratinib; 1 µM", "value": 0.562},
      {"measurement": "relative viability", "setting": "Neratinib + Bortezomib; first compound 0.01 µM", "value": 0.952},
      {"measurement": "relative viability", "setting": "Neratinib + Bortezomib; first compound 0.03162 µM", "value": 0.908},
      {"measurement": "relative viability", "setting": "Neratinib + Bortezomib; first compound 0.1 µM", "value": 0.787},
      {"measurement": "relative viability", "setting": "Neratinib + Bortezomib; first compound 0.3162 µM", "value": 0.891},
      {"measurement": "relative viability", "setting": "Neratinib + Bortezomib; first compound 1 µM", "value": 0.507},
      {"measurement": "relative viability", "setting": "Neratinib + Navitoclax; first compound 0.01 µM", "value": 0.814},
      {"measurement": "relative viability", "setting": "Neratinib + Navitoclax; first compound 0.03162 µM", "value": 0.774},
      {"measurement": "relative viability", "setting": "Neratinib + Navitoclax; first compound 0.3162 µM", "value": 0.65},
      {"measurement": "relative viability", "setting": "Neratinib + Navitoclax; first compound 1 µM", "value": 0.494},
      {"measurement": "relative viability", "setting": "Neratinib + Foretinib; first compound 0.01 µM", "value": 1.36},
      {"measurement": "relative viability", "setting": "Neratinib + Foretinib; first compound 0.03162 µM", "value": 1.36},
      {"measurement": "relative viability", "setting": "Neratinib + Foretinib; first compound 0.1 µM", "value": 1.11},
      {"measurement": "relative viability", "setting": "Neratinib + Foretinib; first compound 0.3162 µM", "value": 0.927},
      {"measurement": "relative viability", "setting": "Neratinib + Foretinib; first compound 1 µM", "value": 0.628},
      {"measurement": "relative viability", "setting": "Neratinib + Lapatinib; first compound 0.01 µM", "value": 0.708},
      {"measurement": "relative viability", "setting": "Neratinib + Lapatinib; first compound 0.03162 µM", "value": 0.822},
      {"measurement": "relative viability", "setting": "Neratinib + Lapatinib; first compound 0.1 µM", "value": 0.63},
      {"measurement": "relative viability", "setting": "Neratinib + Lapatinib; first compound 0.3162 µM", "value": 0.914},
      {"measurement": "relative viability", "setting": "Neratinib + Lapatinib; first compound 1 µM", "value": 0.619},
      {"measurement": "relative viability", "setting": "Neratinib + Pictilisib; first compound 0.01 µM", "value": 0.33},
      {"measurement": "relative viability", "setting": "Neratinib + Pictilisib; first compound 0.03162 µM", "value": 0.318},
      {"measurement": "relative viability", "setting": "Neratinib + Pictilisib; first compound 0.1 µM", "value": 0.193},
      {"measurement": "relative viability", "setting": "Neratinib + Pictilisib; first compound 0.3162 µM", "value": 0.197},
      {"measurement": "relative viability", "setting": "Neratinib + Pictilisib; first compound 1 µM", "value": 0.126},
      {"measurement": "relative viability", "setting": "Neratinib + Crizotinib; first compound 0.01 µM", "value": 0.981},
      {"measurement": "relative viability", "setting": "Neratinib + Crizotinib; first compound 0.03162 µM", "value": 0.799},
      {"measurement": "relative viability", "setting": "Neratinib + Crizotinib; first compound 0.1 µM", "value": 0.681},
      {"measurement": "relative viability", "setting": "Neratinib + Crizotinib; first compound 0.3162 µM", "value": 0.766},
      {"measurement": "relative viability", "setting": "Neratinib + Crizotinib; first compound 1 µM", "value": 0.536},
      {"measurement": "relative viability", "setting": "Neratinib + Linsitinib; first compound 0.01 µM", "value": 0.537},
      {"measurement": "relative viability", "setting": "Neratinib + Linsitinib; first compound 0.03162 µM", "value": 0.87},
      {"measurement": "relative viability", "setting": "Neratinib + Linsitinib; first compound 0.1 µM", "value": 0.581},
      {"measurement": "relative viability", "setting": "Neratinib + Linsitinib; first compound 0.3162 µM", "value": 0.541},
      {"measurement": "relative viability", "setting": "Neratinib + Linsitinib; first compound 1 µM", "value": 0.628},
      {"measurement": "relative viability", "setting": "Neratinib + Alpelisib; first compound 0.01 µM", "value": 0.846},
      {"measurement": "relative viability", "setting": "Neratinib + Alpelisib; first compound 0.03162 µM", "value": 0.894},
      {"measurement": "relative viability", "setting": "Neratinib + Alpelisib; first compound 0.1 µM", "value": 0.647},
      {"measurement": "relative viability", "setting": "Neratinib + Alpelisib; first compound 0.3162 µM", "value": 0.782},
      {"measurement": "relative viability", "setting": "Neratinib + Alpelisib; first compound 1 µM", "value": 0.486},
      {"measurement": "relative viability", "setting": "Neratinib + Vorinostat; first compound 0.01 µM", "value": 0.983},
      {"measurement": "relative viability", "setting": "Neratinib + Vorinostat; first compound 0.03162 µM", "value": 1},
      {"measurement": "relative viability", "setting": "Neratinib + Vorinostat; first compound 0.3162 µM", "value": 0.924},
      {"measurement": "relative viability", "setting": "Neratinib + Vorinostat; first compound 1 µM", "value": 0.715},
      {"measurement": "relative viability", "setting": "Neratinib + Olaparib; first compound 0.01 µM", "value": 0.985},
      {"measurement": "relative viability", "setting": "Neratinib + Olaparib; first compound 0.03162 µM", "value": 0.82},
      {"measurement": "relative viability", "setting": "Neratinib + Olaparib; first compound 0.1 µM", "value": 0.715},
      {"measurement": "relative viability", "setting": "Neratinib + Olaparib; first compound 0.3162 µM", "value": 0.838},
      {"measurement": "relative viability", "setting": "Neratinib + Olaparib; first compound 1 µM", "value": 0.517}
    ]}
  ]
}
